One data set concerns H441 p-ERK. As to the kind of experiment: Cell p-ERK assay (HTRF), NCI-H441 cells. The data set is classed as cell-based, human. Conditions: Homo sapiens; NCI-H441 cells (KRAS G12V), 3 h incubation. Summed up: (§1)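 Phospho-ERK (T202/Y204) was measured by HTRF in lysates after 3 h compound treatment at 37 °C. Cells had been plated the previous day at 20000 per well for NCI-H441 and 10000 per well for AsPC-1. Four-parameter dose-response fitting of % inhibition gave IC50 values.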
(In general: In TR-FRET formats the signal depends on donor and acceptor labels being close together.)

The next data set concerns AsPC-1 p-ERK. As to the kind of experiment: Cell p-ERK assay (HTRF), AsPC-1 cells. Conditions: Homo sapiens, ASPC1, 3 h, read-out: AsPC-1 p-ERK IC50(nM). The data set is classed as cell-based, human. Summed up:
as §1

The subject of the next data set is NCI-H441 cells. As to the kind of experiment: 3D cell proliferation assay (CellTiter Glo-3D), NCI-H441. The data set is classed as cell-based, human. Conditions: Homo sapiens, 120 h, NCI-H441 cells (KRAS G12V), 2% FBS, 5 days, read-out: H441 AP IC50. Summed up:
(§2)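 IC50 values come from four-parameter fits of inhibition rate against log compound concentration, using CellTiter-Glo luminescence read after 5 days' exposure. AsPC-1 and NCI-H441 were plated at 800 cells per well in low-serum (2% FBS) medium. Compound was dosed the day after seeding, with incubation at 37 °C, 5% CO2.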
A general note: ATP-based viability assays read luminescence as a measure of living cells.

The subject of the next data set is AsPC-1 cells. The data set can be described thus: 3D cell proliferation assay (CellTiter Glo-3D), AsPC-1. The data set is classed as cell-based, human. Conditions: Homo sapiens, ASPC1, 120 h, read-out: AsPC-1 AP IC50(nM). Summed up: as §2
Data set [1] can be described thus: Solubility experiment (HPLC, external standard). The class given is physicochemical. To be noted: 37 °C, 24 h; for Solubility at pH 7.4 (µg/mL): pH 7.4 medium, 1440 min; for solubility at 24 h: ph 7.4 medium, pH 7.4, pH 7.4 medium. The procedure:
This experiment was intended to determine the solubility of the compounds in media at different pH values. The materials used in the experiment included: a pH 1.2 medium, a pH 4.5 medium, a pH 7.4 medium, and a diluent (acetonitrile/water = 50/50). 1. The preparation methods for media are as follows:
One centrifuge tube (containing about 2 mg of the test sample) was taken, 1 mL of DMSO was added to completely dissolve the test sample, and the mixture was marked as stock-1. 0.2 mL of stock-1 was transferred into a 10 mL volumetric flask, and then the 50:50 (acetonitrile/water) solution was added to bring the volume to the mark, so as to give a control solution.
Additionally, centrifuge tubes each containing about 1 mg of the test sample were taken, 1 mL of the corresponding medium solution was then added, and the tubes were shaken on a 37 °C water bath shaker for 24 h. After centrifugation for 3 times (centrifugation time: 10 min, rotation speed: 12000 rpm), 0.2 mL of the supernatants were taken, 0.8 mL of the diluent (acetonitrile/water = 50/50) was added to each tube, and the mixtures were vortexed and mixed well to give solubility samples.
The solubility samples described above and the control solution were sequentially analyzed by high performance liquid chromatography. The chromatographic conditions are as follows:
The actual concentration of the compound in each solubility sample was calculated according to an external standard method. Concentration (μg/mL) = (ASample × CControl × DSample)/(AControl)∗1000; [formula] Asample: the peak area of the target peak in the sample solution; Ccontrol: the concentration (mg/mL) of the control solution; Dsample: the dilution factor of the sample solution; Acontrol: the peak area of the target peak in the control solution.

The values below come from EP4775582A1, “MACROCYCLIC COMPOUND AND ANTIBODY-DRUG CONJUGATE THEREOF” (Genfleet Therapeutics (Shanghai) Inc., priority 2023, dated 2025).

In brackets after ≈: the same amount, converted by molar mass.

Take `COCCn1c(-c2cc(C#CCN3CCN(C(=O)CO)CC3)cnc2[C@H](C)OC)c2c3cc(ccc31)-c1csc(n1)C[C@H](NC(=O)[C@H]1[C@H](C)[C@@H]1C)C(=O)N1CCC[C@H](N1)C(=O)OCC(C)(C)C2` (atropisomer, axis not shown; (Ra)) [Compound Z63-1, (2R,3S)-N-((6^3S,4S,Z)-1^2-(5-(3-(4-(2-hydroxyacetyl)piperazin-1-yl)prop-1-yn-1-yl)-(Ra)-2-((S)-1-methoxyethyl)pyridin-3-yl)-1'-(2-methoxyethyl)-10,10-dimethyl-5,7-dioxo-6^1,6^2,6^3,6^4,6^5,6^6-hexahydro-1^1H-8-oxa-2(4,2)-thiazola-1(5,3)-indola-6(1,3)-pyridazinacycloundecaphane-4-yl)-2,3-dimethylcyclopropane-1-carboxamide]: the IC50 with H441 p-ERK amounted to 0.55 nM; in the data set on AsPC-1 p-ERK, 0.61 nM; in the data set on NCI-H441 cells, 0.32 nM; in the data set with AsPC-1 cells, 0.36 nM. Further, in data set [1], the “Solubility at pH 7.4 (µg/mL)” value is 7.53 µg/mL.
For the compound `CCn1c(-c2cc(C#CCN3CCS(=N)(=O)CC3)cnc2[C@H](C)OC)c2c3cc(ccc31)-c1csc(n1)C[C@H](NC(=O)[C@H]1[C@@H]3COC[C@@H]31)C(=O)N1CCC[C@H](N1)C(=O)OCC(C)(C)C2` (atropisomer, axis not shown; (Ra)) [Compound Z27], the IC50 with H441 p-ERK was 0.64 nM; in the data set on AsPC-1 p-ERK, 0.51 nM; in the data set on NCI-H441 cells, 0.44 nM; in the data set with AsPC-1 cells, 0.78 nM. Moreover, the solubility at 24 h in data set [1] worked out at 20.8 µg/mL (≈ 22.8 µM).
On to `CCn1c(-c2cc(C#CCN3CCS(=O)(=O)CC3)cnc2[C@H](C)OC)c2c3cc(ccc31)-c1csc(n1)C[C@H](NC(=O)[C@@H](N)C1CCC1)C(=O)N1CCC[C@H](N1)C(=O)OCC(C)(C)C2` (atropisomer, axis not shown; (Ra)) [Compound Z16, (2S)-2-amino-2-cyclobutyl-N-((6^3S,4S,Z)-(Ra)-1^2-(5-(3-(1,1-dioxidothiomorpholino)prop-1-yn-1-yl)-2-((S)-1-methoxyethyl)pyridin-3-yl)-1^1-ethyl-10,10-dimethyl-5,7-dioxo-6^1,6^2,6^3,6^4,6^5,6^6-hexahydro-1^1H-8-oxa-2(4,2)-thiazola-1(5,3)-indola-6(1,3)-pyridazinacycloundecaphane-4-yl)acetamide], for which the IC50 in the data set on H441 p-ERK is 1.14 nM; with AsPC-1 p-ERK, 1.67 nM. For the same compound, the concentration in solution in data set [1] (solubility at 24 h) was 15 µg/mL (≈ 16.4 µM).
Regarding `COCCn1c(-c2cc(C#CCN3CCN(C(=O)CO)CC3)cnc2[C@H](C)OC)c2c3cc(ccc31)-c1csc(n1)C[C@H](NC(=O)[C@H]1[C@H](C)[C@@H]1C)C(=O)N1CCC[C@H](N1)C(=O)OCC(C)(C)C2` (atropisomer, axis not shown; (Sa)) [Compound Z63-2, (2R,3S)-N-((6^3S,4S,Z)-1^2-(5-(3-(4-(2-hydroxyacetyl)piperazin-1-yl)prop-1-yn-1-yl)-(Sa)-2-((S)-1-methoxyethyl)pyridin-3-yl)-1^1-(2-methoxyethyl)-10,10-dimethyl-5,7-dioxo-6^1,6^2,6^3,6^4,6^5,6^6-hexahydro-1^1H-8-oxa-2(4,2)-thiazola-1(5,3)-indola-6(1,3)-pyridazinacycloundecaphane-4-yl)-2,3-dimethylcyclopropane-1-carboxamide], in data set [1], the “Solubility at pH 7.4 (µg/mL)” value is 15.37 µg/mL.

By IC50 is commonly meant the concentration needed to halve the response being measured. One may read the Solubility as the concentration that dissolves in the medium under given conditions. A lower Solubility goes with a poorly soluble substance. In general, solubility refers to how much of the substance goes into solution per volume.
